For 26 compounds, IC50 results are on record in patent US9187464B2, “TRPV4 antagonists” (GlaxoSmithKline Intellectual Property (No. 2) Limited, priority 2011, dated 2015).

The structures appear in SMILES notation.

In the test the target is T1, human TRPV4 (Homo sapiens, UniProt Q9HBA0).
T1 construct: expressed in transfected cells; host or cells: HEK-293-MSR-II cells transduced with 1% BacMam virus
Nature of the test: Ligand-gated assay (Fluo4 calcium, FLIPR; inhibition of agonist-induced activation). The settings on record: HEK-293-MSR-II cells transduced with BacMam human TRPV4; agonist at EC80. It is filed as cell-based. The procedure, abridged:
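Agonist (EC80) response read on FLIPR as Fluo-4 (2 uM) fluorescence after 10-min room-temperature compound exposure in HBSS/HEPES pH 7.4 with 0.01% Chaps. Cells: HEK-293-MSR-II expressing human TRPV4 via BacMam; output is IC50 of inhibition.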

T1 sequence (Q9HBA0 whole entry): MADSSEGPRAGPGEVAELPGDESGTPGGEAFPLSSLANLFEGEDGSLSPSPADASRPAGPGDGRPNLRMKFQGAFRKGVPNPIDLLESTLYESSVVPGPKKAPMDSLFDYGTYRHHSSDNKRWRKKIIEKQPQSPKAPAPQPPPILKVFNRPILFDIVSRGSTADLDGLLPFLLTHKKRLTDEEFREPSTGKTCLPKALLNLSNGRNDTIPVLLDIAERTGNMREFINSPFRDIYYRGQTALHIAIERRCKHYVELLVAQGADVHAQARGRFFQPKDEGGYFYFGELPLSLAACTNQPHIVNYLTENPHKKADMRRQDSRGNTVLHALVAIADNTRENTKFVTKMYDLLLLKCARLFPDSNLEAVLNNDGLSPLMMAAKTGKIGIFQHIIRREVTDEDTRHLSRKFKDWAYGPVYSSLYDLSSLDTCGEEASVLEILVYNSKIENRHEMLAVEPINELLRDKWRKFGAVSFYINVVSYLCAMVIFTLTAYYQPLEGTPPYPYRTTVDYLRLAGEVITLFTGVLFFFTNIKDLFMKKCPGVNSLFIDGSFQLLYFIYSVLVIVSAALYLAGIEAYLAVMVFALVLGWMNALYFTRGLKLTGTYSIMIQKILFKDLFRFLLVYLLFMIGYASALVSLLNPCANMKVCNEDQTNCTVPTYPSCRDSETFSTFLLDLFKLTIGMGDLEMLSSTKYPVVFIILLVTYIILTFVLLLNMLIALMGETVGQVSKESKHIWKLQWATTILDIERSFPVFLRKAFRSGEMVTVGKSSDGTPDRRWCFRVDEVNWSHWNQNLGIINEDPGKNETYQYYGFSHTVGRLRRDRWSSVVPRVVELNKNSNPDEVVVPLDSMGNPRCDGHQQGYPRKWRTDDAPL

By IC50 is commonly meant the concentration at which inhibition is half-maximal. For the compound `CC(C)Cc1noc(C(C)(C)CN2C[C@@]3(CCC[C@H](Cn4cnc5ccc(C#N)cc54)C3)OC2=O)n1` [Example 82, 1-[((5S,7S)-3-{2-methyl-2-[3-(2-methylpropyl)-1,2,4-oxadiazol-5-yl]propyl}-2-oxo-1-oxa-3-azaspiro[4.5]dec-7-yl)methyl]-1H-benzimidazole-6-carbonitrile], the IC50 lay within 0.1 to 10 nM.

Regarding `CC(C)OCc1noc(C(C)(C)CN2C[C@@]3(CCC[C@H](Cn4cnc5ccc(C#N)cc54)C3)OC2=O)n1` [Example 83, 1-({(5S,7S)-3-[2-methyl-2-(3-{[(1-methylethyl)oxy]methyl}-1,2,4-oxadiazol-5-yl)propyl]-2-oxo-1-oxa-3-azaspiro[4.5]dec-7-yl}methyl)-1H-benzimidazole-6-carbonitrile], the IC50 is 0.1 to 10 nM.

Turning to `N#Cc1cc(Cl)c2ncn(C[C@H]3CCC[C@]4(C3)CN(CC3(c5nc(-c6ccccc6)no5)CCOCC3)C(=O)O4)c2c1` [Example 84, 4-chloro-1-[((5S,7S)-2-oxo-3-{[4-(3-phenyl-1,2,4-oxadiazol-5-yl)tetrahydro-2H-pyran-4-yl]methyl}-1-oxa-3-azaspiro[4.5]dec-7-yl)methyl]-1H-benzimidazole-6-carbonitrile], the IC50 was in the range of 0.1 to 10 nM.

In the case of `N#Cc1cc(Cl)c2ncn(C[C@H]3CCC[C@]4(C3)CN(CC3(c5nc(C6CCCC6)no5)CCOCC3)C(=O)O4)c2c1` [Example 85, 4-chloro-1-[((5S,7S)-3-{[4-(3-cyclopentyl-1,2,4-oxadiazol-5-yl)tetrahydro-2H-pyran-4-yl]methyl}-2-oxo-1-oxa-3-azaspiro[4.5]dec-7-yl)methyl]-1H-benzimidazole-6-carbonitrile], the IC50 is 0.1 to 10 nM.

For `N#Cc1ccc2ncn(C[C@H]3CCC[C@]4(C3)CN(CC3CCN(c5ccccn5)C3)C(=O)O4)c2c1` (stereo partly drawn) [Example 86, 1-[((5S,7S)-2-oxo-3-{[1-(2-pyridinyl)-3-pyrrolidinyl]methyl}-1-oxa-3-azaspiro[4.5]dec-7-yl)methyl]-1H-benzimidazole-6-carbonitrile], the IC50 is 50 to 500 nM.

On to `N#Cc1ccc2ncn(C[C@H]3CCC[C@]4(C3)CN(Cc3cn(-c5ccccc5)nn3)C(=O)O4)c2c1` [Example 87, 1-({(5S,7S)-2-oxo-3-[(1-phenyl-1H-1,2,3-triazol-4-yl)methyl]-1-oxa-3-azaspiro[4.5]dec-7-yl}methyl]-1H-benzimidazole-6-carbonitrile], for which the IC50 fell in the range of 10 to 50 nM.

On to `N#Cc1ccc(-n2cc(CN3C[C@@]4(CCC[C@H](Cn5cnc6ccc(C#N)cc65)C4)OC3=O)nn2)cc1` [Example 88, 1-[((5S,7S)-3-{[1-(4-cyanophenyl)-1H-1,2,3-triazol-4-yl]methyl}-2-oxo-1-oxa-3-azaspiro[4.5]dec-7-yl)methyl]-1H-benzimidazole-6-carbonitrile], for which the IC50 lay within 50 to 500 nM.

Regarding `N#Cc1ccc2ncn(C[C@H]3CCC[C@]4(C3)CN(Cc3cn(-c5ccc(Cl)cc5)nn3)C(=O)O4)c2c1` [Example 89], the IC50 lay in the range of 10 to 50 nM.

As for `N#Cc1ccc2ncn(C[C@H]3CCC[C@]4(C3)CN(Cc3cn(-c5cccc(Cl)c5)nn3)C(=O)O4)c2c1` [Example 90, 1-[((5S,7S)-3-{[1-(3-chlorophenyl)-1H-1,2,3-triazol-4-yl]methyl}-2-oxo-1-oxa-3-azaspiro[4.5]dec-7-yl)methyl]-1H-benzimidazole-6-carbonitrile], the IC50 was in the range of 0.1 to 10 nM.

`Cc1ccc(-n2cc(CN3C[C@@]4(CCC[C@H](Cn5cnc6ccc(C#N)cc65)C4)OC3=O)nn2)cc1` [Example 91, 1-[((5S,7S)-3-{[1-(4-methylphenyl)-1H-1,2,3-triazol-4-yl]methyl}-2-oxo-1-oxa-3-azaspiro[4.5]dec-7-yl)methyl]-1H-benzimidazole-6-carbonitrile]: the IC50 lay in the range of 50 to 500 nM.

In the case of `N#Cc1cccc(-n2cc(CN3C[C@@]4(CCC[C@H](Cn5cnc6ccc(C#N)cc65)C4)OC3=O)nn2)c1` [Example 92, 1-[((5S,7S)-3-{[1-(3-cyanophenyl)-1H-1,2,3-triazol-4-yl]methyl}-2-oxo-1-oxa-3-azaspiro[4.5]dec-7-yl)methyl]-1H-benzimidazole-6-carbonitrile], the IC50 was 10 to 50 nM.

As for `N#Cc1ccc2ncn(C[C@H]3CCC[C@]4(C3)CN(Cc3cn(-c5cccc(C(F)(F)F)c5)nn3)C(=O)O4)c2c1` [Example 93, 1-{[(5S,7S)-2-oxo-3-({1-[3-(trifluoromethyl)phenyl]-1H-1,2,3-triazol-4-yl}methyl)-1-oxa-3-azaspiro[4.5]dec-7-yl]methyl}-1H-benzimidazole-6-carbonitrile], the IC50 lay in the range of 0.1 to 10 nM.

Regarding `N#Cc1ccc2ncn(C[C@H]3CCC[C@]4(C3)CN(Cc3cn(-c5cccc(F)c5)nn3)C(=O)O4)c2c1` [Example 94, 1-[((5S,7S)-3-{[1-(3-fluorophenyl)-1H-1,2,3-triazol-4-yl]methyl}-2-oxo-1-oxa-3-azaspiro[4.5]dec-7-yl)methyl]-1H-benzimidazole-6-carbonitrile], the IC50 fell in the range of 10 to 50 nM.

On to `COc1cccc(-n2cc(CN3C[C@@]4(CCC[C@H](Cn5cnc6ccc(C#N)cc65)C4)OC3=O)nn2)c1` [Example 95, 1-{[(5S,7S)-3-({1-[3-(methyloxy)phenyl]-1H-1,2,3-triazol-4-yl}methyl)-2-oxo-1-oxa-3-azaspiro[4.5]dec-7-yl]methyl}-1H-benzimidazole-6-carbonitrile], for which the IC50 was in the range of 10 to 50 nM.

Regarding `Cc1cccc(-n2cc(CN3C[C@@]4(CCC[C@H](Cn5cnc6ccc(C#N)cc65)C4)OC3=O)nn2)c1` [Example 96, 1-[((5S,7S)-3-{[1-(3-methylphenyl)-1H-1,2,3-triazol-4-yl]methyl}-2-oxo-1-oxa-3-azaspiro[4.5]dec-7-yl)methyl]-1H-benzimidazole-6-carbonitrile], the IC50 is 10 to 50 nM.

As to `N#Cc1ccc2ncn(C[C@H]3CCC[C@]4(C3)CN(Cc3cn(C5CCCCC5)nn3)C(=O)O4)c2c1` [Example 97, 1-({(5S,7S)-3-[(1-cyclohexaneyl-1H-1,2,3-triazol-4-yl)methyl]-2-oxo-1-oxa-3-azaspiro[4.5]dec-7-yl}methyl)-1H-benzimidazole-6-carbonitrile], the IC50 lay in the range of 10 to 50 nM.

Take `N#Cc1ccc2ncn(C[C@H]3CCC[C@]4(C3)CN(Cc3cn(-c5ccc(C#N)c(C(F)(F)F)c5)nn3)C(=O)O4)c2c1` [Example 98, 1-{[(5S,7S)-3-({1-[4-cyano-3-(trifluoromethyl)phenyl]-1H-1,2,3-triazol-4-yl}methyl)-2-oxo-1-oxa-C azaspiro[4.5]dec-7-yl]methyl}-1H benzimidazole-6-carbonitrile]: the IC50 was in the range of 0.1 to 10 nM.

Turning to `N#Cc1cc(Cl)cc(-n2cc(CN3C[C@@]4(CCC[C@H](Cn5cnc6ccc(C#N)cc65)C4)OC3=O)nn2)c1` [Example 99, 1-[((5S,7S)-3-{[1-(3-chloro-5-cyanophenyl)-1H-1,2,3-triazol-4-yl]methyl}-2-oxo-1-oxa-3-azaspiro[4.5]dec-7-yl)methyl]-1H-benzimidazole-6-carbonitrile], the IC50 lay in the range of 0.1 to 10 nM.

Take `N#Cc1ccc2ncn(C[C@H]3CCC[C@]4(C3)CN(Cc3cn(-c5ccnc(C(F)(F)F)c5)nn3)C(=O)O4)c2c1` [Example 100, 1-{[(5S,7S)-2-oxo-3-({1-[2-(trifluoromethyl)-4-pyridinyl]-1H-1,2,3-triazol-4-yl}methyl)-1-oxa-3-azaspiro[4.5]dec-7-yl]methyl}-1H-benzimidazole-6-carbonitrile]: the IC50 is 0.1 to 10 nM.

For the compound `N#Cc1ccc2ncn(C[C@H]3CCC[C@]4(C3)CN(Cc3cn(-c5cc(F)cc(F)c5)nn3)C(=O)O4)c2c1` [Example 101, 1-[((5S,7S)-3-{[1-(3,5-difluorophenyl)-1H-1,2,3-triazol-4-yl]methyl}-2-oxo-1-oxa-3-azaspiro[4.5]dec-7-yl)methyl]-1H-benzimidazole-6-carbonitrile], the IC50 was in the range of 10 to 50 nM.

As to `N#Cc1ccc2ncn(C[C@H]3CCC[C@]4(C3)CN(Cc3cn(-c5ccc(C(F)(F)F)cc5)nn3)C(=O)O4)c2c1` [Example 102, 1-{[(5S,7S)-2-oxo-3-({1-[4-(trifluoromethyl)phenyl]-1H-1,2,3-triazol-4-yl}methyl)-1-oxa-3-azaspiro[4.5]dec-7-yl]methyl}-1H-benzimidazole-6-carbonitrile], the IC50 lay in the range of 0.1 to 10 nM.

Turning to `CC(C)n1cc(CN2C[C@@]3(CCC[C@](C)(Cn4cnc5ccc(C#N)cc54)C3)OC2=O)nn1` [Example 104, 1-[((5S,7S)-7-methyl-3-{[1-(1-methylethyl)-1H-1,2,3-triazol-4-yl]methyl}-2-oxo-1-oxa-3-azaspiro[4.5]dec-7-yl)methyl]-1H-benzimidazole-6-carbonitrile], the IC50 lay within 50 to 500 nM.

With `C[C@]1(Cn2cnc3ccc(C#N)cc32)CCC[C@]2(CN(Cc3cn(-c4ccccc4)nn3)C(=O)O2)C1` [Example 105, 1-({(5R,7S)-7-methyl-2-oxo-3-[(1-phenyl-1H-1,2,3-triazol-4-yl)methyl]-1-oxa-3-azaspiro[4.5]dec-7-yl}methyl)-1H benzimidazole-6-carbonitrile], the IC50 was 10 to 50 nM.

For the compound `N#Cc1ccc2ncn(C[C@H]3CCC[C@]4(C3)CN(Cc3cn(-c5cncc(Cl)c5)nn3)C(=O)O4)c2c1` [Example 106, 1-[((5S,7S)-3-{[1-(5-chloro-3-pyridinyl)-1H-1,2,3-triazol-4-yl]methyl}-2-oxo-1-oxa-3-azaspiro[4.5]dec-7-yl)methyl]-1H-benzimidazole-6-carbonitrile], the IC50 is 10 to 50 nM.

Regarding `CC(C)(C#N)c1noc(N2C[C@@]3(CCC[C@](C)(Cn4cnc5ccc(C#N)cc54)C3)OC2=O)c1Cl` [Example 107, 1-(((5S,7S)-3-(4-chloro-3-(2-cyanopropan-2-yl)isoxazol-5-yl)-7-methyl-2-oxo-1-oxa-3-azaspiro[4.5]decan-7-yl)methyl)-1H-benzo[d]imidazole-6-carbonitrile], the IC50 is 0.1 to 10 nM.

Take `CC(C)(C)c1noc(N2C[C@@]3(CCC[C@](C)(Cn4cnc5ccc(C#N)cc54)C3)OC2=O)c1Br` [Example 108, 1-({(5S,7S)-3-[4-bromo-3-(1,1-dimethylethyl)-5-isoxazolyl]-7-methyl-2-oxo-1-oxa-3-azaspiro[4.5]dec-7-yl}methyl)-1H-benzimidazole-6-carbonitrile]: the IC50 was 0.1 to 10 nM.
